The test system of the data set is CCRIS mutagenicity, Ames/micronucleus/aberration tests. Put plainly: CCRIS mutagenicity studies.
[1] abbreviates: Test System: MOUSE LYMPHOMA, Strain/Indicator: L5178Y (TK+/TK-), Metabolic Activation: NONE, Method: SUSPENSION/PLATE.

In PubChem BioAssay AID1259407 (Chemical Carcinogenesis Research Information System (CCRIS), 2018) one finds mutagenic call data, which are given here for 2 compounds.

Structures are written as SMILES. Calls of active or inactive are those of the source. No rule for the calls is given here.

On to `O=C1C=CC(=O)CC(=O)C1`, for which the mutagenic call is, setting by setting: (Test System: AMES SALMONELLA TYPHIMURIUM, Strain/Indicator: TA98, Metabolic Activation: HAMSTER, LIVER, S-9, AROCLOR 1254, Method: STANDARD PLATE) “inactive; negative”; (Test System: AMES SALMONELLA TYPHIMURIUM, Strain/Indicator: TA98, Metabolic Activation: NONE, Method: STANDARD PLATE) “inactive; negative”; (Test System: AMES SALMONELLA TYPHIMURIUM, Strain/Indicator: TA98, Metabolic Activation: RAT, LIVER, S-9, AROCLOR 1254, Method: STANDARD PLATE) “inactive; negative”; (Test System: AMES SALMONELLA TYPHIMURIUM, Strain/Indicator: TA100, Metabolic Activation: HAMSTER, LIVER, S-9, AROCLOR 1254, Method: STANDARD PLATE) “inactive; negative”; (Test System: AMES SALMONELLA TYPHIMURIUM, Strain/Indicator: TA100, Metabolic Activation: NONE, Method: STANDARD PLATE) “inactive; negative”; (Test System: AMES SALMONELLA TYPHIMURIUM, Strain/Indicator: TA100, Metabolic Activation: RAT, LIVER, S-9, AROCLOR 1254, Method: STANDARD PLATE) “inactive; negative”. Moreover, the mutagenic call runs as follows: (Test System: AMES SALMONELLA TYPHIMURIUM, Strain/Indicator: TA1535, Metabolic Activation: HAMSTER, LIVER, S-9, AROCLOR 1254, Method: STANDARD PLATE) “inactive; negative”; (Test System: AMES SALMONELLA TYPHIMURIUM, Strain/Indicator: TA1535, Metabolic Activation: NONE, Method: STANDARD PLATE) “inactive; negative”; (Test System: AMES SALMONELLA TYPHIMURIUM, Strain/Indicator: TA1535, Metabolic Activation: RAT, LIVER, S-9, AROCLOR 1254, Method: STANDARD PLATE) “inactive; negative”; (Test System: AMES SALMONELLA TYPHIMURIUM, Strain/Indicator: TA1537, Metabolic Activation: HAMSTER, LIVER, S-9, AROCLOR 1254, Method: STANDARD PLATE) “inactive; negative”; (Test System: AMES SALMONELLA TYPHIMURIUM, Strain/Indicator: TA1537, Metabolic Activation: NONE, Method: STANDARD PLATE) “inactive; negative”; (Test System: AMES SALMONELLA TYPHIMURIUM, Strain/Indicator: TA1537, Metabolic Activation: RAT, LIVER, S-9, AROCLOR 1254, Method: STANDARD PLATE) “inactive; negative”. In addition, the mutagenic call (Test System: AMES SALMONELLA TYPHIMURIUM, Strain/Indicator: TA1538, Metabolic Activation: HAMSTER, LIVER, S-9, AROCLOR 1254, Method: STANDARD PLATE) is “inactive; negative”; the mutagenic call (Test System: AMES SALMONELLA TYPHIMURIUM, Strain/Indicator: TA1538, Metabolic Activation: NONE, Method: STANDARD PLATE) was “inactive; negative”; the mutagenic call (Test System: AMES SALMONELLA TYPHIMURIUM, Strain/Indicator: TA1538, Metabolic Activation: RAT, LIVER, S-9, AROCLOR 1254, Method: STANDARD PLATE) is “inactive; negative”; the mutagenic call under setting [1] was “active; positive. reevaluation of results: positive”; the mutagenic call (Test System: MOUSE LYMPHOMA, Strain/Indicator: L5178Y (TK+/TK-), Metabolic Activation: RAT, LIVER, S-9, AROCLOR 1254, Method: SUSPENSION/PLATE) is “inactive; negative. reevaluation of results: negative”.
On to `CC(=O)CC(C)C`, for which the mutagenic call was “inactive; negative” (Test System: AMES SALMONELLA TYPHIMURIUM, Strain/Indicator: TA97, Metabolic Activation: HAMSTER, LIVER, S-9, AROCLOR 1254 (10 OR 30%), Method: PREINCUBATION); “inactive; negative” (Test System: AMES SALMONELLA TYPHIMURIUM, Strain/Indicator: TA97, Metabolic Activation: NONE, Method: PREINCUBATION); “inactive; negative” (Test System: AMES SALMONELLA TYPHIMURIUM, Strain/Indicator: TA97, Metabolic Activation: RAT, LIVER, S-9, AROCLOR 1254 (10 OR 30%), Method: PREINCUBATION); “inactive; negative” (Test System: AMES SALMONELLA TYPHIMURIUM, Strain/Indicator: TA98, Metabolic Activation: HAMSTER, LIVER, S-9, AROCLOR 1254 (10%), Method: PREINCUBATION); “inactive; negative” (Test System: AMES SALMONELLA TYPHIMURIUM, Strain/Indicator: TA98, Metabolic Activation: HAMSTER, LIVER, S-9, AROCLOR 1254 (30%), Method: PREINCUBATION); “inactive; negative” (Test System: AMES SALMONELLA TYPHIMURIUM, Strain/Indicator: TA98, Metabolic Activation: NONE, Method: PREINCUBATION). Also, the mutagenic call was “inactive; negative” (Test System: AMES SALMONELLA TYPHIMURIUM, Strain/Indicator: TA98, Metabolic Activation: RAT, LIVER, S-9, AROCLOR 1254 (10%), Method: PREINCUBATION); “inactive; negative” (Test System: AMES SALMONELLA TYPHIMURIUM, Strain/Indicator: TA98, Metabolic Activation: RAT, LIVER, S-9, AROCLOR 1254 (30%), Method: PREINCUBATION); “inactive; negative” (Test System: AMES SALMONELLA TYPHIMURIUM, Strain/Indicator: TA98, Metabolic Activation: RAT, LIVER, S-9, AROCLOR 1254, Method: PREINCUBATION); “inactive; negative” (Test System: AMES SALMONELLA TYPHIMURIUM, Strain/Indicator: TA100, Metabolic Activation: HAMSTER, LIVER, S-9, AROCLOR 1254 (10%), Method: PREINCUBATION); “inactive; negative” (Test System: AMES SALMONELLA TYPHIMURIUM, Strain/Indicator: TA100, Metabolic Activation: HAMSTER, LIVER, S-9, AROCLOR 1254 (30%), Method: PREINCUBATION); “inactive; negative” (Test System: AMES SALMONELLA TYPHIMURIUM, Strain/Indicator: TA100, Metabolic Activation: NONE, Method: PREINCUBATION). In addition, the mutagenic call is “inactive; negative” (Test System: AMES SALMONELLA TYPHIMURIUM, Strain/Indicator: TA100, Metabolic Activation: RAT, LIVER, S-9, AROCLOR 1254 (10%), Method: PREINCUBATION); “inactive; negative” (Test System: AMES SALMONELLA TYPHIMURIUM, Strain/Indicator: TA100, Metabolic Activation: RAT, LIVER, S-9, AROCLOR 1254 (30%), Method: PREINCUBATION); “inactive; negative” (Test System: AMES SALMONELLA TYPHIMURIUM, Strain/Indicator: TA100, Metabolic Activation: RAT, LIVER, S-9, AROCLOR 1254, Method: PREINCUBATION); “inactive; negative” (Test System: AMES SALMONELLA TYPHIMURIUM, Strain/Indicator: TA1535, Metabolic Activation: HAMSTER, LIVER, S-9, AROCLOR 1254 (10%), Method: PREINCUBATION); “inactive; negative” (Test System: AMES SALMONELLA TYPHIMURIUM, Strain/Indicator: TA1535, Metabolic Activation: HAMSTER, LIVER, S-9, AROCLOR 1254 (30%), Method: PREINCUBATION); “inactive; negative” (Test System: AMES SALMONELLA TYPHIMURIUM, Strain/Indicator: TA1535, Metabolic Activation: NONE, Method: PREINCUBATION). Besides, the mutagenic call was “inactive; negative” (Test System: AMES SALMONELLA TYPHIMURIUM, Strain/Indicator: TA1535, Metabolic Activation: RAT, LIVER, S-9, AROCLOR 1254 (10%), Method: PREINCUBATION); “inactive; negative” (Test System: AMES SALMONELLA TYPHIMURIUM, Strain/Indicator: TA1535, Metabolic Activation: RAT, LIVER, S-9, AROCLOR 1254 (30%), Method: PREINCUBATION); “inactive; negative” (Test System: AMES SALMONELLA TYPHIMURIUM, Strain/Indicator: TA1535, Metabolic Activation: RAT, LIVER, S-9, AROCLOR 1254, Method: PREINCUBATION); “inactive; negative” (Test System: AMES SALMONELLA TYPHIMURIUM, Strain/Indicator: TA1537, Metabolic Activation: NONE, Method: PREINCUBATION); “inactive; negative” (Test System: AMES SALMONELLA TYPHIMURIUM, Strain/Indicator: TA1537, Metabolic Activation: RAT, LIVER, S-9, AROCLOR 1254, Method: PREINCUBATION); “inactive; negative” (Test System: AMES SALMONELLA TYPHIMURIUM, Strain/Indicator: TA1538, Metabolic Activation: NONE, Method: PREINCUBATION). For the same compound, the mutagenic call (Test System: AMES SALMONELLA TYPHIMURIUM, Strain/Indicator: TA1538, Metabolic Activation: RAT, LIVER, S-9, AROCLOR 1254, Method: PREINCUBATION) is “inactive; negative”; the mutagenic call under setting [1] was “active; positive”; the mutagenic call (Test System: MOUSE LYMPHOMA, Strain/Indicator: L5178Y (TK+/TK-), Metabolic Activation: RAT, LIVER, S-9, AROCLOR 1242 AND AROCLOR 1254 (2:1), Method: SUSPENSION/PLATE) was “inactive; negative”.
